Columns and labels:
wild oat [1] = test: Test Example 4: herbicidal effect by soil treatment (Table 19, symbol I); assay type: in vivo, wild oat (Avena fatua); settings: amount of applied herbicide 320 g/ha
Method in brief: (§1)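 Applied as a water-diluted emulsion, the compound was sprayed onto soil covering newly sown seeds. Evaluation came three weeks after application, in a greenhouse held at 25° C. to 30° C.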

persian speedwell [2] = test: Test Example 5: herbicidal effect by foliage application, plastic box (Table 20, symbol R); assay type: in vivo, Persian speedwell (Veronica persica); settings: foliage application, evaluated three weeks after application
Method in brief: (§2)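 Sow seeds spot-wise in sterilized diluvial soil; cover with ~1.5 cm soil. Grow 14 days in greenhouse, 25° C. to 30° C. Spray foliage with emulsion diluted to predetermined amount. Rate effect after 3 weeks.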

barnyard grass [3] = test: Test Example 4: herbicidal effect by soil treatment (Table 19, symbol H); assay type: in vivo, barnyard grass (Echinochloa crus-galli); settings: amount of applied herbicide 320 g/ha
Method in brief: as §1

persian speedwell [4] = test: Test Example 4: herbicidal effect by soil treatment (Table 19, symbol R); assay type: in vivo, Persian speedwell (Veronica persica); settings: amount of applied herbicide 320 g/ha
Method in brief: as §1

redroot pigweed [5] = test: Test Example 5: herbicidal effect by foliage application, plastic box (Table 20, symbol N); assay type: in vivo, redroot pigweed (Amaranthus retroflexus); settings: foliage application, evaluated three weeks after application
Method in brief: as §2

windgrass [6] = test: Test Example 4: herbicidal effect by soil treatment (Table 19, symbol L); assay type: in vivo, windgrass (Apera spica-venti); settings: amount of applied herbicide 320 g/ha
Method in brief: as §1

wild oat [7] = test: Test Example 5: herbicidal effect by foliage application, plastic box (Table 20, symbol I); assay type: in vivo, wild oat (Avena fatua); settings: foliage application, evaluated three weeks after application
Method in brief: as §2

blackgrass [8] = test: Test Example 4: herbicidal effect by soil treatment (Table 19, symbol J); assay type: in vivo, blackgrass (Alopecurus myosuroides); settings: amount of applied herbicide 320 g/ha
Method in brief: as §1

southern crabgrass [9] = test: Test Example 4: herbicidal effect by soil treatment (Table 19, symbol F); assay type: in vivo, southern crabgrass (Digitaria ciliaris); settings: amount of applied herbicide 320 g/ha
Method in brief: as §1

redroot pigweed [10] = test: Test Example 4: herbicidal effect by soil treatment (Table 19, symbol N); assay type: in vivo, redroot pigweed (Amaranthus retroflexus); settings: amount of applied herbicide 320 g/ha
Method in brief: as §1

barnyard grass [11] = test: Test Example 3: herbicidal effect by foliage application, Wagner pot (Table 18, symbol H); assay type: in vivo, barnyard grass (Echinochloa crus-galli); settings: amount of applied herbicide 320 g/ha
Method in brief: (§3)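 Plants were sown in alluvial soil held under 0.1–0.5 cm standing water and grown 14 days in a greenhouse at 25–30 °C. An emulsifiable formulation, water-diluted to the set dose, was then sprayed onto the foliage, and effects were scored three weeks later using previously defined criteria.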

blackgrass [12] = test: Test Example 5: herbicidal effect by foliage application, plastic box (Table 20, symbol J); assay type: in vivo, blackgrass (Alopecurus myosuroides); settings: foliage application, evaluated three weeks after application
Method in brief: as §2

southern crabgrass [13] = test: Test Example 5: herbicidal effect by foliage application, plastic box (Table 20, symbol F); assay type: in vivo, southern crabgrass (Digitaria ciliaris); settings: foliage application, evaluated three weeks after application
Method in brief: as §2

windgrass [14] = test: Test Example 5: herbicidal effect by foliage application, plastic box (Table 20, symbol L); assay type: in vivo, windgrass (Apera spica-venti); settings: foliage application, evaluated three weeks after application
Method in brief: as §2

rice flat sedge = test: Test Example 3: herbicidal effect by foliage application, Wagner pot (Table 18, symbol E); assay type: in vivo, rice flat sedge (Cyperus iria); settings: amount of applied herbicide 320 g/ha
Method in brief: as §3

lambsquarters [15] = test: Test Example 4: herbicidal effect by soil treatment (Table 19, symbol O); assay type: in vivo, lambsquarters (Chenopodium album); settings: amount of applied herbicide 320 g/ha
Method in brief: as §1

Italian ryegrass [16] = test: Test Example 4: herbicidal effect by soil treatment (Table 19, symbol K); assay type: in vivo, Italian ryegrass (Lolium multiflorum); settings: amount of applied herbicide 320 g/ha
Method in brief: as §1

velvetleaf [17] = test: Test Example 5: herbicidal effect by foliage application, plastic box (Table 20, symbol M); assay type: in vivo, velvetleaf (Abutilon theophrasti); settings: foliage application, evaluated three weeks after application
Method in brief: as §2

green foxtail [18] = test: Test Example 5: herbicidal effect by foliage application, plastic box (Table 20, symbol G); assay type: in vivo, green foxtail (Setaria viridis); settings: foliage application, evaluated three weeks after application
Method in brief: as §2

lambsquarters [19] = test: Test Example 5: herbicidal effect by foliage application, plastic box (Table 20, symbol O); assay type: in vivo, lambsquarters (Chenopodium album); settings: foliage application, evaluated three weeks after application
Method in brief: as §2

chickweed [20] = test: Test Example 5: herbicidal effect by foliage application, plastic box (Table 20, symbol P); assay type: in vivo, common chickweed (Stellaria media); settings: foliage application, evaluated three weeks after application
Method in brief: as §2

chickweed [21] = test: Test Example 4: herbicidal effect by soil treatment (Table 19, symbol P); assay type: in vivo, common chickweed (Stellaria media); settings: amount of applied herbicide 320 g/ha
Method in brief: as §1

barnyard grass [22] = test: Test Example 5: herbicidal effect by foliage application, plastic box (Table 20, symbol H); assay type: in vivo, barnyard grass (Echinochloa crus-galli); settings: foliage application, evaluated three weeks after application
Method in brief: as §2

velvetleaf [23] = test: Test Example 4: herbicidal effect by soil treatment (Table 19, symbol M); assay type: in vivo, velvetleaf (Abutilon theophrasti); settings: amount of applied herbicide 320 g/ha
Method in brief: as §1

green foxtail [24] = test: Test Example 4: herbicidal effect by soil treatment (Table 19, symbol G); assay type: in vivo, green foxtail (Setaria viridis); settings: amount of applied herbicide 320 g/ha
Method in brief: as §1

Chinese sprangletop = test: Test Example 3: herbicidal effect by foliage application, Wagner pot (Table 18, symbol D); assay type: in vivo, chinese sprangletop (Leptochloa chinensis); settings: amount of applied herbicide 320 g/ha
Method in brief: as §3

Italian ryegrass [25] = test: Test Example 5: herbicidal effect by foliage application, plastic box (Table 20, symbol K); assay type: in vivo, Italian ryegrass (Lolium multiflorum); settings: foliage application, evaluated three weeks after application
Method in brief: as §2

Row | SMILES | herbicidal effect on I: wild oat (wild oat [1]) | herbicidal effect on H: barnyard grass (barnyard grass [3]) | herbicidal effect on R: persian speedwell (persian speedwell [4]) | herbicidal effect on L: windgrass (windgrass [6]) | herbicidal effect on J: blackgrass (blackgrass [8]) | herbicidal effect on F: southern crabgrass (southern crabgrass [9]) | herbicidal effect on N: redroot pigweed (redroot pigweed [10]) | herbicidal effect on H: barnyard grass (barnyard grass [11]) | herbicidal effect on E: rice flat sedge (rice flat sedge) | herbicidal effect on O: lambsquarters (lambsquarters [15]) | herbicidal effect on K: Italian ryegrass (Italian ryegrass [16]) | herbicidal effect on P: chickweed (chickweed [21]) | herbicidal effect on M: velvetleaf (velvetleaf [23]) | herbicidal effect on G: green foxtail (green foxtail [24]) | herbicidal effect on D: Chinese sprangletop (Chinese sprangletop) | also measured
1 | CSc1cccc(-c2sc3ccc(F)cc3c2-c2c(O)c(C)nn(C)c2=O)c1 [2-240] | 1 (Herbicidal rate of 5% or more and less than 20%) | 2 (Herbicidal rate of 20% or more and less than 40%) | 5 (Herbicidal rate of 90% or more (almost completely withered)) | 0 (Herbicidal rate of 5% or less (almost no effect)) | 0 (Herbicidal rate of 5% or less (almost no effect)) | 4 (Herbicidal rate of 70% or more and less than 90%) | 4 (Herbicidal rate of 70% or more and less than 90%) | 4 (Herbicidal rate of 70% or more and less than 90%) | 4 (Herbicidal rate of 70% or more and less than 90%) | 3 (Herbicidal rate of 40% or more and less than 70%) | 0 (Herbicidal rate of 5% or less (almost no effect)) | 1 (Herbicidal rate of 5% or more and less than 20%) | 1 (Herbicidal rate of 5% or more and less than 20%) | 5 (Herbicidal rate of 90% or more (almost completely withered)) | 3 (Herbicidal rate of 40% or more and less than 70%) | herbicidal effect on R: persian speedwell (criteria 0-5) (persian speedwell [2]; 320 g/ha): 5 (Herbicidal rate of 90% or more (almost completely withered)); herbicidal effect on N: redroot pigweed (criteria 0-5) (redroot pigweed [5]; 320 g/ha): 5 (Herbicidal rate of 90% or more (almost completely withered)); herbicidal effect on I: wild oat (criteria 0-5) (wild oat [7]; 320 g/ha): 5 (Herbicidal rate of 90% or more (almost completely withered)); herbicidal effect on J: blackgrass (criteria 0-5) (blackgrass [12]; 320 g/ha): 3 (Herbicidal rate of 40% or more and less than 70%); herbicidal effect on F: southern crabgrass (criteria 0-5) (southern crabgrass [13]; 320 g/ha): 5 (Herbicidal rate of 90% or more (almost completely withered)); herbicidal effect on L: windgrass (criteria 0-5) (windgrass [14]; 320 g/ha): 4 (Herbicidal rate of 70% or more and less than 90%); herbicidal effect on M: velvetleaf (criteria 0-5) (velvetleaf [17]; 320 g/ha): 4 (Herbicidal rate of 70% or more and less than 90%); herbicidal effect on G: green foxtail (criteria 0-5) (green foxtail [18]; 320 g/ha): 5 (Herbicidal rate of 90% or more (almost completely withered)); herbicidal effect on O: lambsquarters (criteria 0-5) (lambsquarters [19]; 320 g/ha): 5 (Herbicidal rate of 90% or more (almost completely withered)); herbicidal effect on P: chickweed (criteria 0-5) (chickweed [20]; 320 g/ha): 5 (Herbicidal rate of 90% or more (almost completely withered)); herbicidal effect on H: barnyard grass (criteria 0-5) (barnyard grass [22]; 320 g/ha): 3 (Herbicidal rate of 40% or more and less than 70%); herbicidal effect on K: Italian ryegrass (criteria 0-5) (Italian ryegrass [25]; 320 g/ha): 3 (Herbicidal rate of 40% or more and less than 70%)
2 | Cc1nn(C)c(=O)c(-c2c(-c3ccc(OC(F)F)cc3)sc3ccc(F)cc23)c1OC(=O)N(C)C [2-291] | 0 (Herbicidal rate of 5% or less (almost no effect)) | 0 (Herbicidal rate of 5% or less (almost no effect)) | 3 (Herbicidal rate of 40% or more and less than 70%) | 0 (Herbicidal rate of 5% or less (almost no effect)) | 0 (Herbicidal rate of 5% or less (almost no effect)) | 0 (Herbicidal rate of 5% or less (almost no effect)) | 3 (Herbicidal rate of 40% or more and less than 70%) | 4 (Herbicidal rate of 70% or more and less than 90%) | 2 (Herbicidal rate of 20% or more and less than 40%) | 3 (Herbicidal rate of 40% or more and less than 70%) | 0 (Herbicidal rate of 5% or less (almost no effect)) | 4 (Herbicidal rate of 70% or more and less than 90%) | 0 (Herbicidal rate of 5% or less (almost no effect)) | 0 (Herbicidal rate of 5% or less (almost no effect)) | 3 (Herbicidal rate of 40% or more and less than 70%) | R: persian speedwell, herbicidal effect (criteria 0-5) (persian speedwell [2]; AAH 320 g/ha): 5 (Herbicidal rate of 90% or more (almost completely withered)); N: redroot pigweed, herbicidal effect (criteria 0-5) (redroot pigweed [5]; AAH 320 g/ha): 5 (Herbicidal rate of 90% or more (almost completely withered)); I: wild oat, herbicidal effect (criteria 0-5) (wild oat [7]; AAH 320 g/ha): 0 (Herbicidal rate of 5% or less (almost no effect)); J: blackgrass, herbicidal effect (criteria 0-5) (blackgrass [12]; AAH 320 g/ha): 3 (Herbicidal rate of 40% or more and less than 70%); F: southern crabgrass, herbicidal effect (criteria 0-5) (southern crabgrass [13]; AAH 320 g/ha): 0 (Herbicidal rate of 5% or less (almost no effect)); L: windgrass, herbicidal effect (criteria 0-5) (windgrass [14]; AAH 320 g/ha): 0 (Herbicidal rate of 5% or less (almost no effect)); M: velvetleaf, herbicidal effect (criteria 0-5) (velvetleaf [17]; AAH 320 g/ha): 2 (Herbicidal rate of 20% or more and less than 40%); G: green foxtail, herbicidal effect (criteria 0-5) (green foxtail [18]; AAH 320 g/ha): 4 (Herbicidal rate of 70% or more and less than 90%); O: lambsquarters, herbicidal effect (criteria 0-5) (lambsquarters [19]; AAH 320 g/ha): 5 (Herbicidal rate of 90% or more (almost completely withered)); P: chickweed, herbicidal effect (criteria 0-5) (chickweed [20]; AAH 320 g/ha): 5 (Herbicidal rate of 90% or more (almost completely withered)); H: barnyard grass, herbicidal effect (criteria 0-5) (barnyard grass [22]; AAH 320 g/ha): 0 (Herbicidal rate of 5% or less (almost no effect)); K: Italian ryegrass, herbicidal effect (criteria 0-5) (Italian ryegrass [25]; AAH 320 g/ha): 3 (Herbicidal rate of 40% or more and less than 70%)

Reference: US20230085307A1, “PYRIDAZINONE COMPOUND AND HERBICIDE” (NISSAN CHEMICAL CORPORATION, priority 2019, published 2023)
